Reference: article doi:10.1101/2025.04.28.650843v1, “The structure of phycobilisome with a bicylindrical core from the cyanobacterium Synechococcus elongatus PCC 7942” (biorxiv, 2025)

What was measured:
Assay in all cases: cryo-EM structure of phycobilisome, […] Å
Assay type in all cases: binding
ApcF = biological target: T1, ApcF (Synechococcus elongatus, UniProt O50209); settings: covalent; pH 7.0
T1 construct: native subunit in phycobilisome core, glutaraldehyde cross-linked
T1 sequence (O50209 1-169): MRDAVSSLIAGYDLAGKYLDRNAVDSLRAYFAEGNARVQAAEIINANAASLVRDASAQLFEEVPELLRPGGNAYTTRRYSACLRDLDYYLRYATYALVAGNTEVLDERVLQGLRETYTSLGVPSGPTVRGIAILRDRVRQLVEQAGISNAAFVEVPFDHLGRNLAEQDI

ApcE (LCM), αApcE domain = biological target: T2, ApcE (LCM), αApcE domain (Synechococcus elongatus, UniProt Q31RF9); settings: covalent, terminal emitter, pH 7.0
T2 construct: gene Synpcc7942_0328; native ApcE with two REP domains in phycobilisome core (trimer 3), glutaraldehyde cross-linked; bilin in N-terminal αApcE domain
T2 sequence (Q31RF9 1-705): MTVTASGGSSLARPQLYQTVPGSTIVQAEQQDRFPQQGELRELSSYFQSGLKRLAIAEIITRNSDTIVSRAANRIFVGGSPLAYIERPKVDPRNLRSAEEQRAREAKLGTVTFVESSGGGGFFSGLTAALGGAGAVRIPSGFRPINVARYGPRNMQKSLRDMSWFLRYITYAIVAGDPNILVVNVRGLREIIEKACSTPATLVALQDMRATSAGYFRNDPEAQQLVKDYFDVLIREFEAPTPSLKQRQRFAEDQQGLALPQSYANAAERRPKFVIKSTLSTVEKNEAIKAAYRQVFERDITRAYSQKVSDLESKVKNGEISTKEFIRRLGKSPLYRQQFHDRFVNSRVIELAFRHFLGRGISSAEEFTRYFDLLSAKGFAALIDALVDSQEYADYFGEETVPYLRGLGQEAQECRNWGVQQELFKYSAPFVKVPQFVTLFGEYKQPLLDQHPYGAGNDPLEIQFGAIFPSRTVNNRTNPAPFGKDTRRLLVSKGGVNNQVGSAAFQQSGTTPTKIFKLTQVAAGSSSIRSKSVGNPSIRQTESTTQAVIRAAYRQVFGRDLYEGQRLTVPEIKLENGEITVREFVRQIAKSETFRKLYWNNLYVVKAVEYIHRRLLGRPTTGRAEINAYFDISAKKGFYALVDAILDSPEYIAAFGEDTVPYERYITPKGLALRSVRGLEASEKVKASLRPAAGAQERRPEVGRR

ApcD = biological target: T3, ApcD (Synechococcus elongatus, UniProt Q31RP7); settings: covalent; terminal emitter; pH 7.0
T3 construct: gene Synpcc7942_0240; native subunit in phycobilisome core (trimer 4), glutaraldehyde cross-linked
T3 sequence (Q31RP7 1-163): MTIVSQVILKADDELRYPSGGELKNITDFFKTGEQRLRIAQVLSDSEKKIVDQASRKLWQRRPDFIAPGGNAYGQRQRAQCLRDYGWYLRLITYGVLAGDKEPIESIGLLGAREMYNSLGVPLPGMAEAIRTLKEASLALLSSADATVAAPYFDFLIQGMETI

For `C/C=C1/C(=C/C2=NC(=C\c3[nH]c(/C=C4\NC(=O)C(CC)=C4C)c(C)c3CCC(=O)O)/C(CCC(=O)O)=C2C)NC(=O)[C@@H]1C` [phycocyanobilin], the “cryo-EM structure of phycobilisome, 2.98 Å” value (“cryo-EM structure” for short) (ApcF) was “Bilins in rods and core are painted the same colors as the corresponding proteins”, the “cryo-EM structure” value (ApcE (LCM), αApcE domain) was “terminal emitters (ApcD and the α^ApcE domain) are deduced based on the shortest distances” and the “cryo-EM structure” value (ApcD) was “terminal emitters (ApcD and the α^ApcE domain) are deduced based on the shortest distances”.
